Laboratory results: PubChem BioAssay AID330 (DTP/NCI, 2004)
Several values for one entry are separate records, joined by “and”; a condition that tells them apart may be missing. Equal values may be shown once. Toxic doses and inconclusive results are not listed. How the source made its calls: active means survival T/C of 150% or more; inactive means T/C below 125% in these data. Peptide text beside a SMILES is read from it. * marks the point of attachment. Trt = c1ccc(C(c2ccccc2)(c2ccccc2)*)cc1; Cbz = O=C(OCc1ccccc1)*; Bz = O=C(c1ccccc1)*

System: P388 leukemia ip, CD2F1 mice, survival T/C
Assay: NCI In Vivo Anticancer Drug Screen. Data for tumor model P388 Leukemia (intraperitoneal) in CD2F1 (CDF1) mice
Conditions: endpoint: median survival time, higher = longer survival
How it was run: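 Mice carrying the transplanted tumor received test compound or vehicle. Survival was recorded in each group, and the value is the treated-group measurement divided by that of the vehicle-treated control group.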

[1] = dose: 50.0 mg/kg/injection, schedule: Q01DX009 (ip), vehicle: Klucel (hydroxypropylcellulose) (HPC)
[2] = dose: 100.0 mg/kg/injection, schedule: Q01DX009 (ip), vehicle: Klucel (hydroxypropylcellulose) (HPC)
[3] = dose: 200.0 mg/kg/injection, schedule: Q01DX009 (ip), vehicle: Klucel (hydroxypropylcellulose) (HPC)
[4] = dose: 100.0 mg/kg/injection, schedule: Q01DX001 (ip), vehicle: Klucel (hydroxypropylcellulose) (HPC)
[5] = dose: 200.0 mg/kg/injection, schedule: Q01DX001 (ip), vehicle: Klucel (hydroxypropylcellulose) (HPC)
[6] = dose: 50.0 mg/kg/injection, schedule: Q01DX005 (ip), vehicle: Klucel (hydroxypropylcellulose) (HPC)
[7] = dose: 100.0 mg/kg/injection, schedule: Q01DX005 (ip), vehicle: Klucel (hydroxypropylcellulose) (HPC)
[8] = dose: 200.0 mg/kg/injection, schedule: Q01DX005 (ip), vehicle: Klucel (hydroxypropylcellulose) (HPC)
[9] = dose: 25.0 mg/kg/injection, schedule: Q01DX009 (ip), vehicle: Klucel (hydroxypropylcellulose) (HPC)
[10] = dose: 50.0 mg/kg/injection, schedule: Q01DX005 (ip), vehicle: saline with Tween-80
[11] = dose: 100.0 mg/kg/injection, schedule: Q01DX005 (ip), vehicle: saline with Tween-80
[12] = dose: 100.0 mg/kg/injection, schedule: Q04DX003 (ip), vehicle: saline
[13] = dose: 200.0 mg/kg/injection, schedule: Q04DX003 (ip), vehicle: saline
[14] = dose: 400.0 mg/kg/injection, schedule: Q04DX003 (ip), vehicle: saline
[15] = dose: 60.0 mg/kg/injection, schedule: Q01DX005 (ip), vehicle: saline with Tween-80
[16] = dose: 120.0 mg/kg/injection, schedule: Q01DX005 (ip), vehicle: saline with Tween-80
[17] = dose: 240.0 mg/kg/injection, schedule: Q01DX005 (ip), vehicle: saline with Tween-80
[18] = dose: 50.0 mg/kg/injection, schedule: Q01DX005 (ip), vehicle: saline
[19] = dose: 60.0 mg/kg/injection, schedule: Q01DX005 (ip), vehicle: Klucel (hydroxypropylcellulose) (HPC)
[20] = dose: 120.0 mg/kg/injection, schedule: Q01DX005 (ip), vehicle: Klucel (hydroxypropylcellulose) (HPC)
[21] = dose: 240.0 mg/kg/injection, schedule: Q01DX005 (ip), vehicle: Klucel (hydroxypropylcellulose) (HPC)
[22] = dose: 100.0 mg/kg/injection, schedule: Q04DX003 (ip), vehicle: Klucel (hydroxypropylcellulose) (HPC)
[23] = dose: 200.0 mg/kg/injection, schedule: Q04DX003 (ip), vehicle: Klucel (hydroxypropylcellulose) (HPC)
[24] = dose: 400.0 mg/kg/injection, schedule: Q04DX003 (ip), vehicle: Klucel (hydroxypropylcellulose) (HPC)

Measured: T/C

CNc1nc(C)nc(NC)n1
inactive: [1] 91 % of control | [2] 93 % of control | [3] 90 % of control

Nc1nccn2cnnc12
inactive: [4] 100 % of control | [5] 104 % of control | dose: 400.0 mg/kg/injection, schedule: Q01DX001 (ip), vehicle: Klucel (hydroxypropylcellulose) (HPC) 100 % of control

OCCNc1ncnc2cc(Cl)ccc12
inactive: dose: 25.0 mg/kg/injection, schedule: Q01DX005 (ip), vehicle: Klucel (hydroxypropylcellulose) (HPC) 98 % of control | [6] 95 % of control | [7] 105 % of control | [8] 98 % of control

Cc1cc2ccccc2c2c(C)c3cccc[n+]3cc12
inactive: dose: 6.25 mg/kg/injection, schedule: Q04DX003 (ip), vehicle: other 114 % of control | dose: 12.5 mg/kg/injection, schedule: Q04DX003 (ip), vehicle: other 110 % of control | dose: 25.0 mg/kg/injection, schedule: Q04DX003 (ip), vehicle: other 110 % of control

O=C(Nc1nccs1)Nc1cc(C(F)(F)F)ccc1Cl
inactive: [9] 102 % of control | [1] 108 % of control | [2] 97 % of control

Cc1ccc(S(=O)(=O)NC(=O)C#CCOC2CCCCO2)cc1 (stereo not drawn)
inactive: [10] 103 % of control and 122 % of control | [11] 111 % of control and 112 % of control | dose: 200.0 mg/kg/injection, schedule: Q01DX005 (ip), vehicle: saline with Tween-80 112 % of control and 123 % of control

CC1(C)OCC2OC(n3cnc4c(N)ncnc43)C(O)C2O1 (stereo not drawn)
inactive: [9] 111 % of control | [1] 111 % of control | [2] 111 % of control | [3] 97 % of control

O=C1C2CCCC1C(c1ccc(Cl)cc1)NC2c1ccc(Cl)cc1 (stereo not drawn)
inactive: [12] 103 % of control | [13] 103 % of control | [14] 96 % of control

COc1nc2[nH]ccc2c(=O)[nH]1
inactive: [15] 94 % of control | [16] 86 % of control | [17] 96 % of control

O=C(NC(CSSCC(NC(=O)c1ccccc1)C(=O)O)C(=O)O)c1ccccc1 (stereo not drawn)
inactive: dose: 50.0 mg/kg/injection, schedule: Q01DX009 (ip), vehicle: saline with Tween-80 109 % of control | dose: 100.0 mg/kg/injection, schedule: Q01DX009 (ip), vehicle: saline with Tween-80 90 % of control | dose: 200.0 mg/kg/injection, schedule: Q01DX009 (ip), vehicle: saline with Tween-80 101 % of control | dose: 400.0 mg/kg/injection, schedule: Q01DX009 (ip), vehicle: saline with Tween-80 93 % of control

O=C1c2ccccc2C(=O)N1c1ccc(C(F)(F)F)cc1[N+](=O)[O-]
inactive: [12] 91 % of control | [13] 100 % of control | [14] 93 % of control

CC(Cc1ccccc1)N(C)C1=C(CCC#N)CC(C(C)(C)C)CC1 (stereo not drawn)
inactive: [18] 100 % of control | dose: 100.0 mg/kg/injection, schedule: Q01DX005 (ip), vehicle: saline 100 % of control

CCO/C=C1/N=C(c2ccc(Cl)cc2)OC1=O
inactive: [15] 121 % of control

CC1=C2CC3CCC(C)C2(CC1)C3(C)C (stereo not drawn)
inactive: dose: 50.0 mg/kg/injection, schedule: Q01DX009 (ip), vehicle: saline 98 % of control | dose: 100.0 mg/kg/injection, schedule: Q01DX009 (ip), vehicle: saline 95 % of control | [12] 95 % of control | dose: 200.0 mg/kg/injection, schedule: Q01DX009 (ip), vehicle: saline 95 % of control | [13] 95 % of control | [14] 100 % of control

NC(=O)CCNC(=O)CCCNC(=O)CCC[c-]1[c-][c-][c-][c-]1.[Fe].[c-]1[c-][c-][cH-][c-]1
inactive: dose: 12.5 mg/kg/injection, schedule: Q01DX009 (ip), vehicle: distilled water + Tween-80 111 % of control and 119 % of control | dose: 25.0 mg/kg/injection, schedule: Q01DX009 (ip), vehicle: distilled water + Tween-80 115 % of control | dose: 100.0 mg/kg/injection, schedule: Q01DX009 (ip), vehicle: distilled water + Tween-80 123 % of control

CCN(CC)CCOC(=O)c1ccc(NC(=S)Nc2ccccc2)cc1
inactive: [10] 98 % of control | [11] 90 % of control

O/N=C/c1c(Cl)nc2sccn12
inactive: dose: 50.0 mg/kg/injection, schedule: Q01DX001 (ip), vehicle: Klucel (hydroxypropylcellulose) (HPC) 100 % of control | [4] 100 % of control and 91 % of control | [5] 89 % of control and 97 % of control

C/C1=C\CC/C(C)=C/CC/C(C)=C/CC(C)(C)/C=C/C1
inactive: dose: 25.0 mg/kg/injection, schedule: Q01DX009 (ip), vehicle: saline + Tween-80 + alcohol 112 % of control | dose: 50.0 mg/kg/injection, schedule: Q01DX009 (ip), vehicle: saline + Tween-80 + alcohol 112 % of control | dose: 100.0 mg/kg/injection, schedule: Q01DX009 (ip), vehicle: saline + Tween-80 + alcohol 111 % of control

CSc1n[nH]c(C(F)(F)F)n1
inactive: dose: 30.0 mg/kg/injection, schedule: Q01DX005 (ip), vehicle: Klucel (hydroxypropylcellulose) (HPC) 105 % of control | [19] 103 % of control | [20] 95 % of control | [21] 94 % of control

COC(=O)C(CSC(=O)c1ccccc1)NC(=O)CNC(=O)CNC(=O)C(CCCCNC(=O)OCc1ccccc1)NC(=O)CNC(=O)C(CSC(c1ccccc1)(c1ccccc1)c1ccccc1)NC(=O)OCc1ccccc1 (stereo not drawn) (Cbz-C(Trt)GK(Cbz)GGC(Bz)-OMe; configuration not given here)
inactive: [19] 97 % of control | [20] 97 % of control | [21] 88 % of control

CC(C)(C)C(=O)OC/C=C\COC(=O)c1ccccc1
inactive: [9] 101 % of control | [1] 104 % of control and 95 % of control and 96 % of control | [2] 103 % of control and 104 % of control and 122 % of control | [3] 111 % of control

CC1C2Cc3ccc(O)cc3C1(C)CCN2CCC(=O)c1ccccc1 (stereo not drawn)
inactive: [6] 92 % of control | [7] 88 % of control | [8] 88 % of control

CCCCCOP(=O)(N=[N+]=[N-])OCCCCC
inactive: dose: 0.78 mg/kg/injection, schedule: Q01DX009 (ip), vehicle: saline with Tween-80 98 % of control | dose: 1.56 mg/kg/injection, schedule: Q01DX009 (ip), vehicle: saline with Tween-80 98 % of control

COC(=O)c1nnn(-c2cccc(C(F)(F)F)c2)c1N
inactive: [15] 89 % of control | [16] 90 % of control | [17] 100 % of control

CN=C(NC)c1cccc(NC(=O)/C=C\c2ccc(/C=C/C(=O)Nc3cccc(C(=NC)NC)c3)cc2)c1
inactive: dose: 1.56 mg/kg/injection, schedule: Q01DX005 (ip), vehicle: saline with Tween-80 121 % of control

O=C1CC(c2ccccc2)=NO1
inactive: [22] 94 % of control | [23] 99 % of control | [24] 100 % of control

Oc1ccccc1-c1nc(-c2ccccc2)c(-c2ccccc2)[nH]1
inactive: [22] 106 % of control | [23] 101 % of control | [24] 101 % of control

NC(N)=NCCCC(N)C(=O)N1CCCC1C(=O)N1CCCC1C(=O)NC(CCCN=C(N)N)C(=O)O (stereo not drawn) (H-RPPR-OH; configuration not given here)
inactive: dose: 12.5 mg/kg/injection, schedule: Q01DX005 (ip), vehicle: saline 100 % of control | dose: 25.0 mg/kg/injection, schedule: Q01DX005 (ip), vehicle: saline 105 % of control | [18] 101 % of control

CCOP(=O)(O)C1CCCC(C)[N-]1.CCOP(=O)(O)C1CCCC(C)[N-]1.[Co+2] (stereo not drawn)
inactive: dose: 25.0 mg/kg/injection, schedule: Q04DX003 (ip), vehicle: Klucel (hydroxypropylcellulose) (HPC) 107 % of control | dose: 50.0 mg/kg/injection, schedule: Q04DX003 (ip), vehicle: Klucel (hydroxypropylcellulose) (HPC) 95 % of control | [22] 99 % of control and 105 % of control
